Laboratory results taken from patent US20140179681A1, “METHODS AND COMPOSITIONS OF TARGETED DRUG DEVELOPMENT” (priority 2010, published 2014).
pIC50: −log10 of the molar value. Read-outs that look alike come from different tables or passages of the source.

Columns and labels:
EGFR = target: T1, EGFR (Homo sapiens, UniProt P00533); test: EGFR in-cell Western (ICW) screening protocol (EGFR inhibition assay); type: cell-based; parameters: ICW 1 / ICW 2 / ICW Avg: unit not given here; settings: for ICW assay: Table 10, % Inhibition of EGF dependent EGFR phosphorylation in A431 cells, compound 125 μM in assay; for ICW Avg / ICW 1 / ICW 2: ICW assay; for ICW Avg: average of runs 1 and 2; for ICW 1: run 1; for ICW 2: run 2
T1 construct: host or cells: A431
Procedure, shortened: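 In-cell Western read-out: fixed A431 cells were co-stained for total EGFR and phospho-EGFR (Tyr1173; some runs Tyr1045). Before fixation, cells were serum-starved for 2 h, exposed to compound for 4 h, then given EGF for 10 min, usually at 10 ng/ml final (6.6 or 12.5 ng/ml in some runs).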

MDBK line = test: MTT Cell Proliferation Assay, MDBK cells; type: cell-based, bovine; settings: MDBK; for IC50 / pIC50: Bos taurus; for IC50: 72 h, Table 10, second of x/y(ratio): MDBK, three day treatment, unit not printed (doses in μM), read-out: MTT assay (second value); for pIC50: MDBK cells, second value of cell, read-out: MTT Assay IC50(A431/MDBK): MDBK
Procedure, shortened: (§1)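 Each concentration ran in quadruplicate across duplicate plates, with compounds serially diluted in DMSO and delivered at 0.5% DMSO in 0.5% FBS medium for 3 days.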

[1] = test system: epithelial carcinoma A431 cell line; test: MTT Cell Proliferation Assay, A431 cells; type: cell-based; settings: for IC50 / pIC50: Homo sapiens; for IC50: A-431, 72 h, Table 10, first of x/y(ratio): A431, three day treatment, unit not printed (doses in μM), read-out: MTT assay (first value); for pIC50: A-431, A431 cells, first value of cell, read-out: MTT Assay IC50(A431/MDBK): A431; for MTT Assay IC50(A431/MDBK): ratio in parentheses: ratio MDBK IC50 / A431 IC50 (selectivity)
Procedure, shortened: as §1

T1 sequence (P00533 25-1210): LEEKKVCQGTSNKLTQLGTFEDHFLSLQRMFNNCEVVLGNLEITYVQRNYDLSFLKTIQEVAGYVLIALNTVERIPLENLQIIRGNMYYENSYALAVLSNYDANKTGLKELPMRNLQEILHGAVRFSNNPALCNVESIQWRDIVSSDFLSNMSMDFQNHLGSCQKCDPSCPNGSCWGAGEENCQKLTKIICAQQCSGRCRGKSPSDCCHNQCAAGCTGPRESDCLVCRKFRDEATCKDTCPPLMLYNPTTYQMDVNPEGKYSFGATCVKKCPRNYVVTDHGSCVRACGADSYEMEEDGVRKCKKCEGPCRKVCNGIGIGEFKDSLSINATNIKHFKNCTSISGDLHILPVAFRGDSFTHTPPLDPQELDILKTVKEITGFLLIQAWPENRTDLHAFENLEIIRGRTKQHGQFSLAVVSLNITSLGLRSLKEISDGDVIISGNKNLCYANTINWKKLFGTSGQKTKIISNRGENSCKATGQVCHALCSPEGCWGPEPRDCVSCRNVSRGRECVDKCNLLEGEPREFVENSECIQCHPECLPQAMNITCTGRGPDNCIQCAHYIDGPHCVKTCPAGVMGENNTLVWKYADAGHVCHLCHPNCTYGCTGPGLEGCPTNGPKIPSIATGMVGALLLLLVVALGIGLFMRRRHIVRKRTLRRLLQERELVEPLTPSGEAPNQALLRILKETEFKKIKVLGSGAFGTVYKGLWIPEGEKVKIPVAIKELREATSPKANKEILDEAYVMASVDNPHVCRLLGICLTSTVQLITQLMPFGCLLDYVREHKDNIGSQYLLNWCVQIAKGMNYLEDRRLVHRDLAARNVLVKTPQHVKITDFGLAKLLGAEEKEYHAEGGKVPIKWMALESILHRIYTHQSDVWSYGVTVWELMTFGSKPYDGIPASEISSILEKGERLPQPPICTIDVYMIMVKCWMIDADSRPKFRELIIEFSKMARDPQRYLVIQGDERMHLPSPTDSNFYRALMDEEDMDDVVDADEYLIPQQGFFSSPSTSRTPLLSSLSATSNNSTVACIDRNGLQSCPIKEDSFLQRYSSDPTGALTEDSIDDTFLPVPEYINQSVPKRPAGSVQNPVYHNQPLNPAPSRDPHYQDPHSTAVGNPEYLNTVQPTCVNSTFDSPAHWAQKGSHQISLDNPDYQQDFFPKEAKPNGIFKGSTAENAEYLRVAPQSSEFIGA

| SMILES | ICW assay (EGFR) | IC50 [1] | ICW Avg (EGFR) | ICW 1 (EGFR) | ICW 2 (EGFR) | pIC50 [1] | MTT Assay IC50(A431/MDBK): ratio in parentheses [1] | IC50 (MDBK line) | pIC50 (MDBK line) | MTT Assay, MDBK percent at a single concentration (MDBK line; at 100 μM) |
| --- | --- | --- | --- | --- | --- | --- | --- | --- | --- | --- |
| CC1CCc2cc(F)ccc2N1S(=O)(=O)c1ccc(NC(=S)Nc2ccc(Br)cc2Cl)cc1 (stereo not shown) [AD4-12832] | 29.02 | 7.71 µM | – | – | – | – | – | 16.3 µM | – | – |
| CC1CCc2cc(F)ccc2N1S(=O)(=O)c1ccc(NC(=S)Nc2ccc(F)c(Cl)c2)cc1 (stereo not shown) [AD4-12836] | 46.1658 | 9.32 µM | – | – | – | – | – | 8.43 µM | – | – |
| CC1CCc2cc(F)ccc2N1S(=O)(=O)c1ccc(NC(=S)Nc2cccc(F)c2)cc1 (stereo not shown) [AD4-12837] | 35.1542 | 6.28 µM | – | – | – | – | – | 5.68 µM | – | – |
| Cc1ccc(NC(=S)Nc2ccc(S(=O)(=O)Nc3ccccc3)cc2)cc1Cl [AD4-12844] | 112.768 | 6.8 µM | – | – | – | – | – | 6.13 µM | – | – |
| CC1CCc2cc(F)ccc2N1S(=O)(=O)c1ccc(NC(=S)Nc2ccc(F)cc2)cc1 (stereo not shown) [AD4-12850] | 42.2628 | 31.8 µM | – | – | – | – | – | 35.8 µM | – | – |
| O=S(=O)(Nc1ccccc1)c1ccc(NC(=S)Nc2cc(Cl)ccc2Cl)cc1 [AD4-12855] | 25.0542 | 6.83 µM | – | – | – | – | – | 6.25 µM | – | – |
| Cc1ccc2[nH]c(Nc3nc(C)cc(-c4ccccc4)n3)nc(=O)c2c1 [compound 11315] | – | – | 49.58 | 48.33 | 50.82 | – | very selective | – | – | 20% |
| Cc1cc(C)nc(Nc2nc(-c3ccccc3)c3cc(Cl)ccc3n2)n1 [compound 11316] | – | – | 50.76 | 47.95 | 53.57 | 4.35 | 0.45 | – | 4.70 | – |
| CCOc1ccc2nc(Nc3nc(=O)c(Cc4ccc(C)cc4)c(C)[nH]3)nc(C)c2c1 [compound 11442] | – | – | 37.95 | 50.14 | 25.76 | 4.81 | – | – | 3.93 | – |
| Cc1ccc2nc(Nc3nc(CSc4nnc(C)s4)cc(=O)[nH]3)nc(C)c2c1 [compound 11450] | – | – | 50.68 | 53.35 | 48.02 | 5.16 | – | – | 5.17 | – |
| Cc1ccnc(Nc2nc(-c3ccccc3)c3cc(Cl)ccc3n2)n1 [compound 11455] | – | – | 37.35 | 48.80 | 25.90 | 4.96 | 2.16 | – | 4.63 | – |
| COc1cccc(-c2cc(=O)[nH]c(Nc3nc(C)c4cccc(C)c4n3)n2)c1 [compound 11474] | – | – | 40.45 | 32.19 | 48.71 | 5.45 | 7.98 | – | 4.55 | – |
| CCc1ccc2nc(Nc3nc(-c4cccc(OC)c4)cc(=O)[nH]3)nc(C)c2c1 [compound 11503] | – | – | 32.21 | 25.88 | 38.53 | 5.17 | 2.83 | – | 4.72 | – |

Second part, led by results:

| ICW assay (EGFR) | IC50 [1] | ICW Avg (EGFR) | ICW 1 (EGFR) | ICW 2 (EGFR) | pIC50 [1] | MTT Assay IC50(A431/MDBK): ratio in parentheses [1] | SMILES | IC50 (MDBK line) | pIC50 (MDBK line) | MTT Assay, MDBK percent at a single concentration (MDBK line; at 100 μM) |
| --- | --- | --- | --- | --- | --- | --- | --- | --- | --- | --- |
| 46.4407 | 37 µM | – | – | – | – | – | Cc1ccc(Cl)cc1NC(=S)Nc1ccc(S(=O)(=O)N2c3ccc(F)cc3CCC2C)cc1 (stereo not shown) [AD4-12829] | 37.3 µM | – | – |
| 115.634 | 5.94 µM | – | – | – | – | – | O=S(=O)(Nc1ccccc1)c1ccc(NC(=S)Nc2ccc(Cl)c(Cl)c2)cc1 [AD4-12833] | 5.96 µM | – | – |
| 116.579 | 6.15 µM | – | – | – | – | – | O=S(=O)(Nc1ccccc1)c1ccc(NC(=S)Nc2cccc(C(F)(F)F)c2)cc1 [AD4-12835] | 5.89 µM | – | – |
| 80.8965 | 6.72 µM | – | – | – | – | – | O=S(=O)(Nc1ccccc1)c1ccc(NC(=S)Nc2cccc(Cl)c2)cc1 [AD4-12842] | 5.55 µM | – | – |
| 118.637 | 6.51 µM | – | – | – | – | – | O=S(=O)(Nc1ccccc1)c1ccc(NC(=S)Nc2ccc(F)c(Cl)c2)cc1 [AD4-12851] | 5.39 µM | – | – |
| 36.92 | 8.76 µM | – | – | – | – | – | CC1CCc2cc(F)ccc2N1S(=O)(=O)c1ccc(NC(=S)Nc2cccc(Cl)c2Cl)cc1 (stereo not shown) [AD4-12853] | 7.51 µM | – | – |
| 38.7055 | 6.64 µM | – | – | – | – | – | CCc1ccc(NC(=S)Nc2ccc(S(=O)(=O)Nc3ccccc3)cc2)cc1 [AD4-12854] | 8.19 µM | – | – |
| – | – | 33.47 | 29.81 | 37.13 | 5.19 | 3.08 | Cc1ccc2nc(Nc3nc(=O)c(Cc4ccccc4)c(C)[nH]3)nc(C)c2c1 [compound 11294] | – | 4.70 | – |
| – | – | 43.72 | 50.06 | 37.38 | 5.46 | 3.27 | COc1ccc2nc(Nc3nc(CSc4nnnn4-c4ccccc4)cc(=O)[nH]3)nc(C)c2c1 [compound 11448] | – | 4.93 | – |
| – | – | 37.11 | 48.00 | 26.22 | 5.19 | 0.84 | FC(F)(F)c1cc(C(F)(F)F)nc(Nc2nc(-c3ccccc3)c3cc(Cl)ccc3n2)n1 [compound 11449] | – | 5.27 | – |
| – | – | 35.54 | 33.74 | 37.33 | 5.23 | 0.94 | COc1ccc2nc(Nc3nc(C)c(CCC(C)C)c(=O)[nH]3)nc(C)c2c1 [compound 11456] | – | 5.26 | – |
| – | – | 28.58 | 38.67 | 18.48 | 4.56 | 1.79 | Cc1cc(C(F)(F)F)nc(Nc2nc(C)c3ccccc3n2)n1 [compound 11457] | – | 4.31 | – |
| – | – | 77.32 | 77.14 | 77.49 | 4.84 | 3.19 | CCc1ccc2nc(Nc3nc(C)c(CCC(C)C)c(=O)[nH]3)nc(C)c2c1 [compound 11462] | – | 4.33 | – |
| – | – | 25.25 | 26.79 | 23.71 | 4.99 | 1.13 | Cc1ccc2c(C)nc(Nc3nc(CSc4nnc(C)s4)cc(=O)[nH]3)nc2c1 [compound 11469] | – | 4.94 | – |
| – | – | 59.32 | 51.74 | 66.90 | 4.61 | – | Cc1ccc2c(C)nc(Nc3nc(C(C)C)cc(=O)[nH]3)nc2c1 [compound 11472] | – | 4.71 | – |
| – | – | 33.91 | 36.71 | 31.11 | 4.75 | 0.74 | Cc1cc(C)c2nc(Nc3nc(CSc4nnc(C)s4)cc(=O)[nH]3)nc(C)c2c1 [compound 11476] | – | 4.88 | – |
| – | – | 49.32 | 42.15 | 56.48 | 5.27 | – | CCCCc1c(C)nc(Nc2nc(C)c3cc(C)ccc3n2)[nH]c1=O [compound 11498] | – | 5.06 | – |
